The record followed here is patent US20140039018A1 (priority 2011, published 2014).

SMILES strings stand for the structures. Values after ≈ are worked out from the molar mass of the structure shown. Like-named read-outs stand apart in the source and are kept apart here.

In test [1] the test system is Fusarium graminearum Fg15 strain. The test is classed as cell-based. Particulars: 25° C., 1 week.
The test system is the same in test [2]. Put plainly: microbe, parasite or virus in culture. The test is classed as cell-based. Particulars: FG15STRAIN, read-out: MIC value (minimum inhibition concentration).
For test [3], the system named is Fusarium graminearum H-3 strain. Type of test: in vivo, wheat.
Test [4] shares this test system. The test is classed as in vivo, barley. Particulars: 18% wettable powder, 2000-fold dilution, 1500 L/ha, once in browning stage.

As for `CC1(C)CCC(Cc2ccc(Cl)cc2)C1(O)Cn1cncn1` (stereo not shown) [metconazole], the “toxin (DON) amount per cell weight versus medium containing no metconazole” value in test [1] (PDA medium containing metconazole at 0.1 ppm) and in test [1] (PDA medium containing metconazole at 0.2 ppm) was “significantly smaller” in each case. In test [2], the MIC was 1.56 µg/mL (≈ 4.88 µM). The “mycotoxin (DON) in wheat grains versus grain cropped without application” value in test [3] (18% wettable powder, 2000-fold dilution, 1500 L/ha, once in yellowing stage or each once in flowering and yellowing stage, 2 weeks after cropping, FIG. 2) is listed as “significantly smaller amount of the toxin”. Besides, the “accumulation of the toxin in wheat grains after cropping” value in test [3] (application in the pre-cropping yellowing stage) is “inhibited”. In addition, the “DON accumulation level in barley grain at the time of cropping” value in test [4] came out at 704 ppb. The “DON accumulation level in barley grain after storage for a half year” value in test [4] (room temperature storage for a half year after cropping) is reported as 407 ppb.
